Reference: patent US10435399B2, “HDAC6 inhibitory heterocyclic compound” (TAKEDA PHARMACEUTICAL COMPANY LIMITED, priority 2017, dated 2019)

These compounds were tested against T1, HDAC6 enzyme (Homo sapiens, UniProt Q9UBN7) (assay: HDAC6 enzyme inhibitory activity (HDAC-Glo I/II Assay kit)). Settings: 10 μM; wells without enzyme = 100% inhibition; read-out: HDAC6 inhibitory rate (%) (10 μM).
T1 construct: transducing full length HDAC6 gene into Sf-9 insect cells; GST; purchased SignalChem; host or cells: Sf-9 insect cells
T1 sequence (Q9UBN7 1-1215): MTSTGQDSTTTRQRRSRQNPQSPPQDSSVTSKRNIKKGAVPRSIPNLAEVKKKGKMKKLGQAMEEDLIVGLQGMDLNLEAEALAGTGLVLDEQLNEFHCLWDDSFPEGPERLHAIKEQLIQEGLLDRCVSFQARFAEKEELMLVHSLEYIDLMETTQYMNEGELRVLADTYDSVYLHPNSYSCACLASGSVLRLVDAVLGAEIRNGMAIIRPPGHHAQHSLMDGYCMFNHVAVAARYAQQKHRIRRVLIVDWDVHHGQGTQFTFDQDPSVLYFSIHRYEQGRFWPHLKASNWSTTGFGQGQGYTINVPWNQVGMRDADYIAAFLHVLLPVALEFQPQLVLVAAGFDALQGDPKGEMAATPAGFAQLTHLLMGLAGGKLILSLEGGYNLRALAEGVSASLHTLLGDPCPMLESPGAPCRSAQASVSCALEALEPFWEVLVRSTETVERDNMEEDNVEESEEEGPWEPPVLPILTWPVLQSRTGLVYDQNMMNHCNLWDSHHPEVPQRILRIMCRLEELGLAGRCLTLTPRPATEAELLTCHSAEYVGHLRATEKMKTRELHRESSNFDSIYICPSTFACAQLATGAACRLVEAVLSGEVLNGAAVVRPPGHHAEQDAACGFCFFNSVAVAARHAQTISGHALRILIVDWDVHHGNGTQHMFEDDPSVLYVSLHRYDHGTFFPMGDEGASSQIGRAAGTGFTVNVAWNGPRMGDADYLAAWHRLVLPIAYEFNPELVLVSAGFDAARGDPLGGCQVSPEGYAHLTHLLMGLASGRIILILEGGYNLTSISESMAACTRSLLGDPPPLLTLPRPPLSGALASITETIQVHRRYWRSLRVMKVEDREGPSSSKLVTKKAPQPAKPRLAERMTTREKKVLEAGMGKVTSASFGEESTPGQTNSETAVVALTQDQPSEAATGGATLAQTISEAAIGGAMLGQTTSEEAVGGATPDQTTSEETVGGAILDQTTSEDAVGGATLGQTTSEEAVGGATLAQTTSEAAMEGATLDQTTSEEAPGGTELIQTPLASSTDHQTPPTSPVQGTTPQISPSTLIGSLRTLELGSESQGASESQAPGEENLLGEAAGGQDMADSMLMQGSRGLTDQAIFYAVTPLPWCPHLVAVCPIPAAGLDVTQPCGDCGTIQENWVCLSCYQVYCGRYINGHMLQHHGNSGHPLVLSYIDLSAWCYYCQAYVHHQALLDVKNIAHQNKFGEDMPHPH
Format: biochemical
Summary of the method: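 Luminescence read-out after 20 min reaction with HDAC-Glo substrate-developer, following 60 min room-temperature preincubation of compound with Sf-9-expressed, GST-purified full-length enzyme. Inhibition is relative to no-enzyme wells set as 100%.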

Compound | inhibition at 10 µM
CC(C)(C)OC(=O)N1CC(F)(F)C[C@@H]1CN1Cc2c(F)cc(-c3nnc(C(F)F)o3)cc2C1=O [Example 352, tert-butyl (2R)-2-((6-(5-(difluoromethyl)-1,3,4-oxadiazol-2-yl)-4-fluoro-1-oxo-1,3-dihydro-2H-isoindol-2-yl)methyl)-4,4-difluoropyrrolidine-1-carboxylate] | 99%
O=C1c2cc(-c3nnc(C(F)F)o3)cnc2CN1Cc1cc(F)cc(F)c1 [Example 353, 6-(3,5-difluorobenzyl)-3-(5-(difluoromethyl)-1,3,4-oxadiazol-2-yl)-6,7-dihydro-5H-pyrrolo[3,4-b]pyridin-5-one] | 98%
O=C1c2cc(-c3nnc(C(F)F)o3)cc(F)c2CN1C[C@H]1CC(F)(F)CN1 [Example 354, 6-(5-(difluoromethyl)-1,3,4-oxadiazol-2-yl)-2-(((2R)-4,4-difluoropyrrolidin-2-yl)-methyl)-4-fluoroisoindolin-1-one] | 92%
O=C1c2cc(-c3nnc(C(F)F)o3)cnc2CN1Cc1cccc(C(F)(F)F)c1 [Example 355] | 100%
O=C1c2cc(-c3nnc(C(F)F)o3)cc(F)c2CN1C[C@H]1CC(F)(F)CN1S(=O)(=O)C1CC1 [Example 356, 2-(((2R)-1-(cyclopropyl-sulfonyl)-4,4-difluoro-pyrrolidin-2-yl)methyl)-6-(5-(difluoromethyl)-1,3,4-oxadiazol-2-yl)-4-fluoro-isoindolin-1-one] | 101%
COc1ccccc1CN1Cc2ncc(-c3nnc(C(F)F)o3)cc2C1=O [Example 357, 3-(5-(difluoromethyl)-1,3,4-oxadiazol-2-yl)-6-(2-methoxybenzyl)-6,7-dihydro-5H-pyrrolo[3,4-b]-pyridin-5-one] | 98%
O=C1c2cc(-c3nnc(C(F)F)o3)cnc2CN1Cc1ccccc1OC(F)F [Example 358, 6-(2-(difluoromethoxy)-benzyl)-3-(5-(difluoro-methyl)-1,3,4-oxadiazol-2-yl)-6,7-dihydro-5H-pyrrolo-[3,4-b]pyridin-5-one] | 102%
O=C1c2cc(-c3nnc(C(F)F)o3)cnc2CN1Cc1cccnc1 [Example 359, 3-(5-(difluoromethyl)-1,3,4-oxadiazol-2-yl)-6-(pyridin-3-ylmethyl)-6,7-dihydro-5H-pyrrolo[3,4-b]pyridin-5-one] | 97%
O=C1c2cc(-c3nnc(C(F)F)o3)cc(F)c2CN1[C@@H]1CCOC[C@H]1NCC(F)(F)F [Example 360, 6-(5-(difluoromethyl)-1,3,4-oxadiazol-2-yl)-4-fluoro-2-((3S,4R)-3-((2,2,2-trifluoro-ethyl)amino)tetrahydro-2H-pyran-4-yl)isoindolin-1-one] | 103%
O=C1c2cc(-c3nnc(C(F)F)o3)cc(F)c2CN1[C@@H]1COCC[C@H]1NCC(F)(F)F [Example 361, 6-(5-(difluoromethyl)-1,3,4-oxadiazol-2-yl)-4-fluoro-2-((3S,4R)-4-((2,2,2-trifluoro-ethyl)amino)tetrahydro-2H-pyran-3-yl)isoindolin-1-one] | 101%
O=C1c2cc(-c3nnc(C(F)F)o3)cnc2CN1Cc1ccccn1 [Example 362, 3-(5-(difluoromethyl)-1,3,4-oxadiazol-2-yl)-6-(pyridin-2-yl-methyl)-6,7-dihydro-5H-pyrrolo[3,4-b]pyridin-5-one] | 99%
CC(C)(C)OC(=O)N[C@H]1COCC[C@H]1N1Cc2c(F)cc(-c3nnc(C(F)F)o3)cc2C1=O [Example 363, tert-butyl ((3R,4R)-4-(6-(5-(difluoromethyl)-1,3,4-oxadiazol-2-yl)-4-fluoro-1-oxo-1,3-dihydro-2H-isoindol-2-yl)tetrahydro-2H-pyran-3-yl)carbamate] | 99%
N[C@H]1COCC[C@H]1N1Cc2c(F)cc(-c3nnc(C(F)F)o3)cc2C1=O [Example 364, 2-((3R,4R)-3-amino-tetrahydro-2H-pyran-4-yl)-6-(5-(difluoromethyl)-1,3,4-oxadiazol-2-yl)-4-fluoroisoindolin-1-one] | 87%

The remaining lines, values ahead:

inhibition at 10 µM | Compound
101% | O=C1c2cc(-c3nnc(C(F)F)o3)cc(F)c2CN1[C@@H]1CCOC[C@@H]1NC(=O)C(F)(F)C(F)(F)F [Example 365, N-((3R,4R)-4-(6-(5-(difluoromethyl)-1,3,4-oxadiazol-2-yl)-4-fluoro-1-oxo-1,3-dihydro-2H-isoindol-2-yl)tetrahydro-2H-pyran-3-yl)-2,2,3,3,3-pentafluoropropanamide]
97% | CC(F)(F)C(=O)N[C@H]1COCC[C@H]1N1Cc2c(F)cc(-c3nnc(C(F)F)o3)cc2C1=O [Example 366, N-((3R,4R)-4-(6-(5-(difluoromethyl)-1,3,4-oxadiazol-2-yl)-4-fluoro-1-oxo-1,3-dihydro-2H-isoindol-2-yl)tetrahydro-2H-pyran-3-yl)-2,2-difluoropropanamide]
101% | O=C1c2cc(-c3nnc(C(F)F)o3)cnc2CN1[C@@H]1CCCC[C@H]1NCC(F)(F)F [Example 367, 3-(5-(difluoromethyl)-1,3,4-oxadiazol-2-yl)-6-((1R,2R)-2-((2,2,2-trifluoroethyl)amino)-cyclohexyl)-6,7-dihydro-5H-pyrrolo[3,4-b]pyridin-5-one]
99% | Cn1cc(-c2cccc(C#N)c2)c(N2Cc3ccc(-c4nnc(C(F)F)o4)cc3C2=O)n1 [Example 368, 3-(3-(6-(5-(difluoromethyl)-1,3,4-oxadiazol-2-yl)-1-oxo-1,3-dihydro-2H-isoindol-2-yl)-1-methyl-1H-pyrazol-4-yl)benzonitrile]
99% | Cn1cc(-c2cccc(Cl)c2)c(N2Cc3ccc(-c4nnc(C(F)F)o4)cc3C2=O)n1 [Example 369, 2-(4-(3-chlorophenyl)-1-methyl-1H-pyrazol-3-yl)-6-(5-(difluoro-methyl)-1,3,4-oxadiazol-2-yl)isoindolin-1-one]
101% | O=C1c2cc(-c3nnc(C(F)F)o3)cnc2CN1Cc1cccc(C(F)F)c1 [Example 370, 6-(3-(difluoromethyl)benzyl)-3-(5-(difluoro-methyl)-1,3,4-oxadiazol-2-yl)-6,7-dihydro-5H-pyrrolo[3,4-b]pyridin-5-one]
99% | O=C1c2cc(-c3nnc(C(F)F)o3)cc(F)c2CN1C1(CNS(=O)(=O)CC(F)(F)F)CCCCC1 [Example 371, N-((1-(6-(5-(difluoro-methyl)-1,3,4-oxadiazol-2-yl)-4-fluoro-1-oxo-1,3-dihydro-2H-isoindol-2-yl)cyclohexyl)methyl)-2,2,2-trifluoroethane-sulfonamide]
92% | O=C1c2cc(-c3nnc(C(F)F)o3)cc(F)c2CN1c1ccccc1Br [Example 372, 2-(2-bromophenyl)-6-(5-(difluoromethyl)-1,3,4-oxadiazol-2-yl)-4-fluoroisoindolin-1-one]
97% | O=C1c2cc(-c3nnc(C(F)F)o3)ccc2CN1c1cccc(F)c1Br [Example 373, 2-(2-bromo-3-fluorophenyl)-6-(5-(difluoromethyl)-1,3,4-oxadiazol-2-yl)isoindolin-1-one]
99% | O=C1c2cc(-c3nnc(C(F)F)o3)cc(F)c2CN1[C@@H]1CCOC[C@@H]1NCC(F)(F)F [Example 374, 6-(5-(difluoromethyl)-1,3,4-oxadiazol-2-yl)-4-fluoro-2-((3R,4R)-3-((2,2,2-trifluoroethyl)amino)tetrahydro-2H-pyran-4-yl)isoindolin-1-one]
101% | O=C1c2cc(-c3nnc(C(F)F)o3)cc(F)c2CN1[C@@H]1CCOC[C@@H]1NCC(F)(F)C(F)(F)F [Example 375, 6-(5-(difluoromethyl)-1,3,4-oxadiazol-2-yl)-4-fluoro-2-((3R,4R)-3-((2,2,3,3,3-pentafluoropropyl)amino)tetrahydro-2H-pyran-4-yl)isoindolin-1-one]
101% | N#Cc1cccc(-c2ccccc2N2Cc3c(F)cc(-c4nnc(C(F)F)o4)cc3C2=O)c1 [Example 376, 2′-(6-(5-(difluoro-methyl)-1,3,4-oxadiazol-2-yl)-4-fluoro-1-oxo-1,3-dihydro-2H-isoindol-2-yl)biphenyl-3-carbonitrile]
